In patent US20250066409A1, “DERIVATIVE OF PENTACYCLIC TRITERPENOIDAL SAPONIN AND ITS PREPARATION METHOD AND APPLICATION” (SOOCHOW UNIVERSITY, priority 2022, published 2025):

Key:
IL-6 = IL-6 release from LPS-stimulated THP-1 cells, ELISA; assay type: cell-based; conditions: pretreatment 1 h, LPS 1 μg/mL 24 h, P<0.05
Description: (§1) THP-1 cells were seeded in a 6-well plate at 2×10^5 cells/well and cultured conventionally. After the cells reached 80%, they were induced with 100 ng/ml of PMA for 12 h, and then the original medium was discarded, and new complete medium was added. The control group was pretreated with B4 (0.1, 1, 10 μM) for 1 h, and the experimental group was pretreated with A3-6 (0.1, 1, 10 μM) for 1 h. After 1 h, the other groups were removed from the blank group and incubated with 1 μg/mL LPS for 24 h. The culture supernatant was collected, and the IL-6 and TNF-α contents were finally determined and calculated using ELISA kits step by step according to their instructions. The effect of A3-6 on the release of inflammatory factors was tested by ELISA kits.

TNF-α = TNF-α release from LPS-stimulated THP-1 cells, ELISA; assay type: cell-based; conditions: pretreatment 1 h, LPS 1 μg/mL 24 h, P<0.05
Description: as §1

DSS-induced colitis mice = assay: DSS-induced colitis in mice (DAI score, colon length); assay type: in vivo, ICR mice; conditions: B4 group (100 mg/kg by gavage), 5% DSS mice
Description: ICR mice were fed normally for 3 days, with free access to water and food during the feeding period. After weighing, the mice were randomly divided into groups, including normal group, model group (DSS group), A3-6 (15, 30, 60 mg/kg) group, A3-6 (60 mg/kg)+DADA (50 mg/kg) group, and positive drug B4 (100 mg/kg) group. A3-6 was administered by gavage with hydroxypropyl β-cyclodextrin (1:3), B4 was dissolved in water and administered by gavage, and DADA (50 mg/kg) was injected intraperitoneally, once a day. The day before modeling, the weight was weighed and A3-6, DADA and B4 were pre-administered according to body weight. After 24 hours of administration, DSS was dissolved in the drinking water for mice. The mice in the model group and the administration group were continuously given 5% DSS for 8 days and weighed every day. […] After the 9th day of administration, the mice were sacrificed, blood and colon were collected, and the length of the colon was measured.
A3-6 (15 mg/kg, 30 mg/kg and 60 mg/kg) or B4 (100 mg/kg) were administered by gavage once daily for 9 days. […] The DAI scores of each group of mice were calculated daily according to the scoring requirements.
The mice colitis model was constructed using 5% DSS to evaluate the therapeutic effect of A3-6 on inflammatory bowel disease (IBD)-. […] The DAI score of the mice was comprehensively evaluated.

## C=C(C)[C@@H]1CC[C@]2(C(=O)O[C@@H]3O[C@H](CO[C@@H]4O[C@H](CO)[C@@H](O[C@@H]5O[C@@H](C)[C@H](O)[C@@H](O)[C@H]5O)[C@H](O)[C@H]4O)[C@@H](O)[C@H](O)[C@H]3O)CC[C@]3(C)[C@H](CC[C@@H]4[C@@]5(C)CC[C@H](O[C@@H]6OC[C@H](O)[C@H](O)[C@H]6O[C@@H]6O[C@@H](C)[C@H](O)[C@@H](O)[C@H]6O)[C@@](C)(CO)[C@@H]5CC[C@]43C)[C@@H]12 [B4, anemoside B4]
IL-6; 1 μM
  release of IL-6 compared with the model group: significantly reduced
IL-6; 10 μM
  release of IL-6 compared with the model group: significantly reduced
TNF-α; 1 μM
  release of TNF-α compared with the model group: significantly reduced
TNF-α; 10 μM
  release of TNF-α compared with the model group: significantly reduced
DSS-induced colitis mice
  colon length: could restore the colon length
